Reference: PMC12261233, “Photoactivatable Cyclometalated Ir(III) Compound Penetrates the Blood-Brain Barrier in 3D Spheroidal and Advanced 3D Organoid Models of Inherently Resistant and Aggressive Brain Tumors” (ACS Pharmacology & Translational Science, 2025)
Read-outs that look alike come from different tables or passages of the source.

Experiments:
U87MG cells = experiment: Antiproliferative activity, 2D monolayer, SRB assay; format: cell-based, human; conditions: for PI (phototoxicity index) 2D: IC50 dark / IC50 420 nm irradiated; for IC50: U87MG 2D monolayer, 90 min treatment, SRB
Procedure: The antiproliferative activity of the compounds under investigation was assessed using the Sulforhodamine B (SRB) assay on both 2D cell monolayers and 3D spheroids. For the 2D cell monolayer assay, cells were seeded in 96-well tissue culture plates at a density of 3 × 10^3 cells/well in 100 μL of culture medium. Following overnight incubation in a humidified CO2 incubator, the medium was replaced, and the cells were treated with the investigated compounds in a final volume of 200 μL/well of Earle’s Balanced Salt Solution (EBSS). The cells were then exposed to the tested compounds for 1.5 h under dark conditions (5% CO2, 37 °C) and subsequently irradiated with blue light (420 nm) for 30 min at an intensity of 58 W/m^2. After treatment, the samples were washed with Phosphate-Buffered Saline (PBS) and replenished with 200 μL of culture medium. Following an additional 70-h incubation, the cells were washed with PBS, fixed with trichloroacetic acid at 4 °C for 1 h, and stained with 0.4% SRB dye for 30 min. The stained cells were dissolved with Tris (10 mM), and the cell viability was assessed by measuring the absorbance at 570 nm using an Absorbance Reader (SPARK TECAN, SCHOELLER). […] After the 72-h spheroid formation period, the samples were treated and irradiated as described for the 2D cultures. […] The luminescence signal was detected using the plate reader SPARK (Tecan, Manedorf, Switzerland), and the IC50 values were calculated from the survival curves. All experiments were conducted in triplicate to ensure the reliability and reproducibility of the results. Furthermore, the concentrations of the compounds in the medium during the treatment were verified using Flame Atomic Absorption Spectroscopy (FAAS) or Inductively Coupled Plasma Mass Spectrometry (ICP-MS). […]
drug-free incubation. c IC50 values were determined by SRB assay. d IC50 values were determined by CellTiter-Glo® 3D chemiluminescent assay. e PI - phototoxicity index was calculated as the ratio of IC50 determined under the dark conditions / IC50 determined for 420 […]
models under irradiation conditions.

U87MG spheroids = experiment: Calcein AM/PPI staining of Matrigel-embedded spheroids after single-spheroid 405 nm irradiation (confocal); format: cell-based, human; conditions: for change in calcein AM/PPI ratio with blue light irradiation: 405 nm irradiated; for change in calcein AM/PPI ratio under dark conditions: versus control
Procedure: Spheroids were treated with iridium complexes at IC50 concentrations (Table S4) for 3 h, followed by 405 nm laser irradiation for 60 s. After 24 h in a drug-free medium, spheroids were stained for analysis. Significant differences in live and dead cell counts were observed between irradiated and nonirradiated samples for Ir3 and Ir4, with morphological disruptions noted in treated spheroids, including reduced diameters and metabolically active cells concentrated in the core (Figure , panel III, inserts 2* and 4*).
Matrigel-embedded spheroids were treated for 3 h with the investigated compounds at concentrations corresponding to the IC50 determined for 3D cultures. Then, the samples were irradiated for 60 s with 405 nm laser light (1 mW) and placed in a drug-free, 3D forming medium for an additional 21 h. Then, treated and irradiated (or dark incubated controls) were stained with Hoechst 33258 (20 μg mL^–1), Calcein AM (2 μM), and PPI (8 μg mL^–1) for 2 h. Samples were sequentially imaged on a confocal microscope Leica CM SP5 (Leica, Germany), in 10 z-stack scans (20 μm each). Images were processed using ImageJ software. Fluorescence intensities were assessed for the maximal projections of the z-stacks, and the corresponding Calcein AM/PPI ratio was calculated. Hoechst dye was used to accurately define the Region of Interest (ROI) mask and analyze fluorescence intensities. Three independent experiments were carried out to ensure the reliability and reproducibility of the results. The representative images are shown.

[1] = dark, 70 h drug-free incubation, read-out: IC50 2D Dark
[2] = 30 min blue light 420 nm 58 W m-2, 70 h drug-free, read-out: IC50 2D Irradiated

IC50 (U87MG cells; Homo sapiens, U-87 MG, dark, 70 h drug-free incubation, read-out: IC50 2D Dark) | Compound | PI (phototoxicity index) 2D (U87MG cells) | IC50 (U87MG cells; [1]) | IC50 (U87MG cells; [2]) | change in calcein AM/PPI ratio with blue light irradiation (U87MG spheroids) | change in calcein AM/PPI ratio under dark conditions (U87MG spheroids)
 | Cc1ccc(-c2cc3[n+]4c(c2)-c2cccc[n+]2[Ir-3]42([Cl])([c]4cc5ccccc5cc4-c4n(Cc5ccc(C(F)(F)F)cc5)c5ccccc5[n+]42)[n+]2ccccc2-3)cc1.F[P-](F)(F)(F)(F)F [Ir3] | 45 | 30.4 ± 4.3 µM | 0.67 ± 0.08 µM | substantial decrease | insignificant changes
≥ 100 µM | Cn1nnc2c(C(N)=O)ncn2c1=O [Temozolomide, reference compound] |  |  |  |  | 
 | CCCCn1c2[n+](c3cc(C(=O)OC)ccc31)[Ir-3]13([Cl])([c]4ccccc4-2)[n+]2ccccc2-c2cc(-c4ccc(C)cc4)cc([n+]21)-c1cccc[n+]13.F[P-](F)(F)(F)(F)F [Ir4] | 41 | 21.3 ± 1.4 µM | 0.52 ± 0.08 µM | substantial decrease | significant decrease
 | Cc1ccc(-c2cc3[n+]4c(c2)-c2cccc[n+]2[Ir-3]42([Cl])([c]4c(ccc5c4OCO5)-c4n(Cc5ccc(C(F)(F)F)cc5)c5ccccc5[n+]42)[n+]2ccccc2-3)cc1.F[P-](F)(F)(F)(F)F [Ir5] | 60 | 25.3 ± 2.1 µM | 0.42 ± 0.03 µM | substantial decrease | insignificant changes
